Source: paper PMC6070535, “Identification, Characterization, and X-ray Crystallographic Analysis of a Novel Type of Lectin AJLec from the Sea Anemone Anthopleura japonica” (Scientific Reports, 2018)
Converted amounts (≈) assume the structure as drawn.

How the values were obtained:
AJLec = target: T1, AJLec (Anthopleura japonica, UniProt A0A2Z5WLM1); experiment: hemagglutination inhibition, rabbit erythrocytes; format: cell-based; conditions: 2.4–2.6 μg/mL AJLec, TBS-Ca2+
T1 construct: mature 164 residues, 18,491 Da, precursor 186 residues; N-terminal pyroglutamate; disulfide-linked homodimer (36 kDa); Ca2+ dependent
T1 sequence (A0A2Z5WLM1 23-186): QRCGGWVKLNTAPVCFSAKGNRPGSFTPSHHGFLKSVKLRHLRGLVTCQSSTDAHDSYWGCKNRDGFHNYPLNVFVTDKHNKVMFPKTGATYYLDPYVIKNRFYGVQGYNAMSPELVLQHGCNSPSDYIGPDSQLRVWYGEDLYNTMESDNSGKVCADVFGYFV
Description: hemagglutination inhibition, rabbit erythrocytes on AJLec

[1] = target: AJLec (Anthopleura japonica Lectin) (Anthopleura japonica); experiment: crystal structure; AJLec with 100 mM lactose and 1 mM CaCl2 in TBS; vapor diffusion, 200 mM NaCl, 100 mM HEPES pH 7.5, 30% PEG 3350, 20 °C; two chains per asymmetric unit

Row | Molecule | Minimum inhibitory concentration (AJLec) | stoichiometry N [1]
1 | OC[C@H]1O[C@@H](O[C@@H]2[C@@H](CO)OC(O)(CO)[C@H]2O)[C@H](O)[C@@H](O)[C@H]1O (some centres unmarked) [Lactulose] | 0.1 mM (≈ 34.2 µg/mL) | –
2 | CO[C@H]1O[C@H](CO)[C@@H](O)[C@H](O)[C@@H]1O [Me-α-Man] | > 25 mM | –
3 | C[C@@H]1OC(O)[C@H](O)[C@H](O)[C@H]1O (stereo partly drawn) [L-Rhamnose] | 3 mM (≈ 492 µg/mL) | –
4 | OC[C@H]1O[C@H](O[C@H]2[C@H](O)[C@@H](O)C(O)O[C@@H]2CO)[C@H](O)[C@@H](O)[C@@H]1O (some centres unmarked) [Maltose] | 6.3 mM (≈ 2160 µg/mL) | –
5 | CO[C@@H]1O[C@H](CO)[C@H](O)[C@H](O)[C@H]1O [Me-β-Gal] | 0.4 mM (≈ 77.7 µg/mL) | –
6 | OC[C@H]1OC(O)[C@@H](O)[C@@H](O)[C@@H]1O (stereo partly drawn) [D-Mannose] | > 25 mM | –
7 | CC(=O)N[C@H]1C(O)O[C@H](CO)[C@H](O)[C@@H]1O (some centres unmarked) [N-Acetylgalactosamine] | 25 mM (≈ 5530 µg/mL) | –
8 | AJLec (Anthopleura japonica Lectin) (natural protein) | – | 2

Second part, the molecule after the results:

Row | Minimum inhibitory concentration (AJLec) | stoichiometry N [1] | Molecule
9 | > 25 mM | – | CO[C@H]1O[C@H](CO)[C@@H](O)[C@H](O)[C@H]1O [Me-α-Glc]
10 | > 25 mM | – | OC[C@H]1OC(O)[C@H](O)[C@@H](O)[C@@H]1O (stereo partly drawn) [D-Glucose]
11 | 0.8 mM (≈ 155 µg/mL) | – | CO[C@H]1O[C@H](CO)[C@H](O)[C@H](O)[C@H]1O [Me-α-Gal]
12 | 0.8 mM (≈ 274 µg/mL) | – | OC[C@H]1O[C@H](OC[C@H]2OC(O)[C@H](O)[C@@H](O)[C@@H]2O)[C@H](O)[C@@H](O)[C@H]1O (some centres unmarked) [Melibiose]
13 | 3 mM (≈ 492 µg/mL) | – | C[C@@H]1OC(O)[C@@H](O)[C@H](O)[C@@H]1O (stereo partly drawn) [L-Fucose]
14 | 0.8 mM (≈ 404 µg/mL) | – | OC[C@H]1O[C@H](OC[C@H]2O[C@H](O[C@]3(CO)O[C@H](CO)[C@@H](O)[C@@H]3O)[C@H](O)[C@@H](O)[C@@H]2O)[C@H](O)[C@@H](O)[C@H]1O [Raffinose]
15 | 0.05 mM (≈ 9.01 µg/mL) | – | OC[C@H]1OC(O)[C@H](O)[C@@H](O)[C@H]1O (some centres unmarked) [Galactose]
16 | 3.1 mM (≈ 1060 µg/mL) | – | OC[C@H]1O[C@H](OC[C@H]2OC(O)(CO)[C@@H](O)[C@@H]2O)[C@H](O)[C@@H](O)[C@@H]1O (some centres unmarked) [Palatinose]
17 | 0.1 mM (≈ 34.2 µg/mL) | – | OC[C@H]1O[C@@H](O[C@H]2[C@H](O)[C@@H](O)C(O)O[C@@H]2CO)[C@H](O)[C@@H](O)[C@H]1O (some centres unmarked) [Lactose]
